Laboratory results published in patent publication US6458585B1, “Cytokine-free culture of dendritic cells” (Nexell Therapeutics Inc., priority 1996, dated 2002).

What was measured:
Assay type in all cases: cell-based, human
[1] = tested on: Bulk PBMNC; test: Flow cytometry phenotype of bulk PBMNC cultures with non-cytokine additives; settings: Day 7
Method: (§1) Culture of Bulk PBMNC: PBMNC cells were cultured in X-VIVO 15™ supplemented with 2 mM L- glutamine. Cultures were initiated at 5×^05 cells/ml in PL2417 gas-permeable containers (20 ml). GM-CSF and IL-4 were added to the cultures at final concentrations of 50 ng/ml and 1000 U/ml or non-cytokine additives such as Vitamin D3 at 2.5 uM, Vitamin E at 0.1%, Linoleic Acid at 5 ug/ml, or Ca++ Ionophore at 10 mM. Addition and subtraction of cells, media, and growth factors to and from PL2417 gas-permeable containers was accomplished by spiking a Sampling Site Coupler into the sample port of the container followed by use of syringes and needles. Cells were cultured in a 5% CO2, ambient O2, 37° C. humidified incubator for 7 days.
Cultured cells were phenotyped as described in Example 1 above for the following markers: […]

[2] = tested on: Bulk PBMNC; test: Morphologically identified dendritic cells in bulk PBMNC cultures with non-cytokine additives; settings: for % DC: Day 7; for TOTAL # OF DC: Day 7, projected in culture
Method: (§2) Cytofunnels were attached to microscope slides. 50,000 to 100,000 cells were removed from each culture and resuspended in approximately 100 to 200 ul of PBS-CMF. Slides were placed in the Cytospin® centrifuge and spun at 100 rpm for 4 min. Cytofunnels were removed from the slides and the slides were air dried for 1 minute. Ten drops of Wright-Geimsa stain were placed onto each slide and allowed to fix for 1 to 2 minutes. Ten drops of water were added to each slide and allowed to sit for 2 to 4 minutes. The slides were rinsed and air dried.
(§3) Reading of Cytospin Slides: Slides were read under phase contrast microscopy, 40× and 60× oil magnification. One hundred cells were identified and characterized morphologically as either dendritic cells or non-dendritic cells (lymphocytes and monocyte, or CD34+-derived cells in those cases). Digital images were taken using a color monitor and color video printer.
as §1
(§4) Cytospin slide preparation, Wright-Geimsa and immunohistochemical staining of the cultured cells were conducted as described in Example 1 and 2 above. Mixed lymphocyte reactions (MLR's) were setup using T cells (responders) and dendritic cell enriched cultures (stimulators) from bulk PBMNC cultures, as described above in Example 1.

[3] = tested on: T cells; test: Allogeneic MLR with bulk PBMNC cultures grown with non-cytokine additives
Method: MLR's were setup using T cells as responders and dendritic cell enriched cultures as antigen presenters. Sheep red blood cells were prepared and used to erythrocyte rosette T cells from a MNC preparation as described in “Current Protocols in Immunology”, John Wiley & Sons Inc, 1995. Vol. 2, 7.2.1-7.2.4. Erythrocyte+(E+ ) T cells were resuspended to 1×10^6 cells/ml in RPMI 1640/10% FCS. Dendritic cells were resuspended to 1×10^6 cells/ml in RPMI 1640/10% FCS and mitomycin C was added at 25 ug/ml to inhibit proliferation. The tubes were incubated at 37° C. for 30 min. then washed 3 times with PBS-CMF/1% HA. […] […] The appropriate control wells were also prepared. Plates were incubated for 4 or 5 days at 37° C.
Each well was pulsed with 1 uCi of ^3H-thymidine in RPMI 1640/10% FCS. Plates were incubated overnight at 37° C.
Plates were harvested onto glass fiber filter strips using a cell harvester. Discs were placed into scintillation vials containing scintillation cocktail and samples were counted using a beta radiation counter.
as §4
The functional capacity of cultured cells to induce T cell proliferation was measured in an allogeneic MLR. […] At the greatest ratio of 1:100, the differences in capacity to induce T cell proliferation is marginal between the GM-CSF/IL-4 cultured cells and the non-cytofine additive cultured cells.

[4] = tested on: Bulk PBMNC; test: S100+ cells in bulk PBMNC cultures with non-cytokine additives; settings: for % S100+: Day 7; for TOTAL # OF S100+: Day 7, projected in culture
Method: (§5) Immunocytochemical staining: PBS (phosphate buffered saline) was made by dissolving 5 PBS tablets into 1000 ml millipore water. Cytospin slides were soaked in PBS. Endogenous peroxidase activity was blocked by treating slides with hydrogen peroxide/PBS (2 ml 30% H2O2+30 ml PBS) for 10 min. Slides were rinsed with PBS one time. Non-specific binding sites were blocked by incubating with normal serum matching source of secondary antibody (i.e. if secondary antibody is biotinylated goat-anti-mouse, used normal goat serum) at room temp. for 15 min. in a humidified environment. Excess serum was shaken from slides and placed 100 ul of primary antibody on slide, making sure cells are covered with liquid and incubated in humidified environment, room temp, for one hour. Negative control slides were incubated with normal serum for this hour. Slides were rinsed 3 times with PBS. Slides were incubated with biotinylated antibody reactive against the primary antibody (i.e. if primary antibody is mouse-anti-human, use a biotinylated goat-anti-mouse antibody) for 1 hour in humidity. Slides were rinsed 3 times with PBS. Slides were incubated with streptavidin-peroxidase, 2 drops/slide, for 30 min. in humidity. Slides were rinsed 3 times with PBS.
(§6) Chromagen solution was made with 5 ml millipore water+2 drops of chromagen buffer+1 drop of concentrated chromagen+1 drop of substrate, and 4-5 drops were added to each slide. […] Slides were counterstained with hematoxylin for about 5 min, or until cell nuclei were stained purple. Cells were rinsed with tap water and allowed to air dry. Slides were covered with crystal mount and oven dried at 80 degrees for 15 min. Slides were allowed to cool, then coversliped with mounting medium.
as §1, §4
The S100 protein is a nerve cell protein that has been associated with dendritic cells. In Table 47, at day 7 of culture, the highest percent of S100+ cells was present in the GM-CSF/IL-4 culture (13%).

[5] = tested on: Bulk PBMNC; test: Concentration, viability and total cells of bulk PBMNC cultured with non-cytokine additives in PL2417; settings: Day 7, PL2417 container, X-VIVO 15
Method: as §1
The next set of experiments evaluated only 4 of the non-cytokine additives. These 4 were determined to have the highest ability to induce DC generation from PBMNC. The 4 non-cytokine additives examined were Vitamin D3, Vitamin E, Ca^++ Ionophore, and Linoleic Acid. These additives were compared to GM-CSF/IL-4. Bulk PBMNC were initiated at 5×10^5 cells/ml in X-VIVO 15™ using PL2417 gas-permeable containers (20 ml per container).

[6] = tested on: adherent PBMNC; test: S100 immunohistochemistry of plastic adherent cells cultured with non-cytokine additives
Method: as §5, with “Endogenous peroxidase activity was blocked by treating slides with hydrogen peroxide/PBS (2 ml 30% H2O2+30 ml PBS) for 10 min.” left out
as §6
(§7) Enrichment and Culture of Adherent Cells Using Polystyrene Tissue Culture Plates: PBMNC were resuspended in culture media (X-VIVO 15™+10% autologous serum) at 2×10^6 cells/ml. Cells were placed into 48 well polystyrene tissue culture plates […] and incubated for 2 hours in a 5% CO2, ambient O2, 37° C. humidified incubator. Non-adherent cells were removed from the plates then wells were rinsed with X-VIVO 15™ containing no serum. Cells remaining in the wells were adherent cells. These cells were cultured by adding 2 ml of X-VIVO 15™ to each well plus GM-CSF and IL-4 at final concentrations of 50 ng/ml and 1000 U/ml or the following: cAMP at 0.5 mM, dibutyryl cAMP at 0.1 mM, NaF at 0.25 mM, theophylline at 0.5 mM, PGE at 0.1 mM, Vitamin D3 at 2.5 uM, Vitamin E at 0.1%, Retinoic Acid at 10^−6 M, PMA at 1 pM, Linoleic Acid at 5 ug/ml, or Ca^++ Ionophore at 10 mM. Furthermore, cells were also cultured with the above non-cytokine additives plus GM-CSF at 50 ng/ml. Cells were cultured in a 5% CO2, ambient O2, 37° C. humidified incubator for 7 days.
as §4
(§8) Results: In the set of experiments using plastic adherent cells grown in polystyrene tissue culture plates, a Day 0 analysis of the cells was not performed. However, these cultures were analyzed for the presence of DC on days 4 and 7. Analysis perfomed were cell counts, viability via propidium iodide, morphology under Wright-Geimsa staining, and immunohistochemical staining using an anti-S100 antibody.

[7] = tested on: adherent PBMNC; test: DC morphology (Wright-Geimsa) of plastic adherent cells cultured with non-cytokine additives
Method: as §2, §3, §7, §4, §8

[8] = tested on: adherent PBMNC; test: Cell counts and viability of plastic adherent cells cultured with non-cytokine additives in polystyrene plates; set-up: % VIABLE: concentration or dose not given beside the values; settings: for % VIABLE: propidium iodide
Method: Viability Determination: Prior to acquisition, 5 ul propidium iodide (PI) was added to each tube for use as a viability check. The cells were vortexed and acquired within 10 min of PI addition.
as §7, §8

[9] = Day 7, Cell Culture:T cell Ratio 1:1
[10] = Day 7, Cell Culture:T cell Ratio 1:10
[11] = Day 7, Cell Culture:T cell Ratio 1:100

Structure (SMILES)	Percent of Phenotype in Culture: CD1a-PE [1]	Percent of Phenotype in Culture: CD14-PE [1]	Percent of Phenotype in Culture: CD80-PE [1]	Percent of Phenotype in Culture: CD86-PE [1]	% DC [2]	TOTAL # OF DC [2]	Allogeneic MLR. Increase Over Background Proliferation [3, 9]	Allogeneic MLR. Increase Over Background Proliferation [3, 10]	Allogeneic MLR. Increase Over Background Proliferation [3, 11]	% S100+ [4]	TOTAL # OF S100+ [4]	CELLS/ML [5]	TOTAL CELLS [5]	VIABILITY [5]	other results
Cc1c(C)c2c(c(C)c1O)CCC(C)(CCCC(C)CCCC(C)CCCC(C)C)O2 (mixture of isomers) [VIT E]	0.08%	0.73%	1.97%	2.75%	4.00%	2.82E+05	6.3	2.6	1.7	8.00%	6.01E + 05	1.87E + 06 cells/ml	7.52E + 06	82.41%	
CNc1ccc2oc(CC3OC4(CCC3C)OC(C(C)C(=O)c3ccc[nH]3)C(C)CC4C)nc2c1C(=O)O (stereo not drawn) [Ca ++ Iono]										7.50%	6.17E + 05	2.22E + 06 cells/ml	8.29E + 06	83.72%	% S100+ ([6]; Day 4, without GM-CSF): 17.00%; % S100+ ([6]; Day 7, with GM-CSF present): 26.50%; % DC ([7]; Day 4, without GM-CSF): 2.50%; % DC ([7]; Day 7, with GM-CSF present): 4.50%; TOTAL CELLS ([8]; Day 4, without GM-CSF): 1.69E + 05; % VIABLE ([8]; Day 4, without GM-CSF): 74.04%; TOTAL CELLS ([8]; Day 7, with GM-CSF present): 1.05E + 05; % VIABLE ([8]; Day 7, with GM-CSF present): 82.69%
CCCCC/C=C\C/C=C\CCCCCCCC(=O)O [Linoleio Acid]										8.50%	7.75E + 05		9.18E + 06	87.77%	
C=C1CCC(O)CC1=CC=C1CCCC2(C)C1CCC2C(C)CCCC(C)C (stereo not drawn) [VIT D3]	0.10%	0.53%	2.65%	2.62%	6.50%	5.12E+05	6.9	2.7	1.4	5.00%	4.16E + 05	2.11E + 06 cells/ml	8.04E + 06	84.51%	
